How the values were obtained:
[1] = method code SF-HPLC, from DOI: 10.1016/0005-2728(88)90027-8, PMID: 3196713; conditions: pH 2.2

Row | Compound | logP | logD [1]
1 | Cc1cc(Br)ccc1NC(=O)c1cc(F)ccc1O | 5.15 | –
2 | O=C(Nc1ccc(F)cc1F)c1cc(Br)cc(Br)c1O | 4.99 | –
3 | O=C(Nc1ccccc1)c1cc(Cl)cc(Cl)c1O | 4.01 | –
4 | Cc1ccccc1NC(=O)c1cc(Cl)ccc1O | – | 4.21
5 | O=C(Nc1ccccc1)c1cc(Cl)ccc1O | 3.98 | –
6 | Cc1cc(Cl)ccc1NC(=O)c1ccccc1O | 5.18 | –
7 | O=C(Nc1ccc(Cl)cc1)c1cc(Br)ccc1O | 5.02 | –
8 | O=C(Nc1ccccc1[N+](=O)[O-])c1ccccc1O | 2.87 | –
9 | O=C(Nc1ccc(F)cc1)c1cc(Cl)cc(Cl)c1O | – | 4.76
10 | O=C(Nc1ccc(Br)cc1)c1ccccc1O | 4.51 | –
11 | O=C(Nc1ccc(Cl)cc1)c1cc(Cl)cc(Cl)c1O | 5.15 | –
12 | O=C(Nc1ccc(Cl)cc1[N+](=O)[O-])c1ccccc1O | 4.02 | –

Next, values leading:

Row | logP | logD [1] | Compound
13 | 4.29 | – | O=C(Nc1ccc(Cl)cc1)c1ccccc1O
14 | 5.05 | – | O=C(Nc1ccc(Cl)cc1[N+](=O)[O-])c1cc(Br)cc(Br)c1O
15 | 4.51 | – | Cc1cc([N+](=O)[O-])ccc1NC(=O)c1cc(Cl)cc(Cl)c1O
16 | 5.49 | – | O=C(Nc1ccc(Cl)cc1Cl)c1ccccc1O
17 | 5.08 | – | O=C(Nc1ccc(Cl)cc1[N+](=O)[O-])c1cc(Cl)cc(Cl)c1O
18 | 4.55 | – | O=C(Nc1ccc(F)cc1F)c1cc(Cl)cc(Cl)c1O
19 | – | 4.35 | O=C(Nc1ccccc1Cl)c1ccccc1O
20 | 4.89 | – | Cc1cc(Cl)ccc1NC(=O)c1cc(F)ccc1O

Reference: the SangsterLogP compilation
